The results in this text go back to patent US11607422B2, “Uttroside B and derivatives thereof as therapeutics for hepatocellular carcinoma” (Rajiv Gandhi Centre for Biotechnology, an Autonomous …, priority 2016, dated 2023).

Assay [1] deals with autophagy related proteins in HepG2 cells. Nature of the assay: Western blot of autophagy related proteins in HepG2 cells. The class given is cell-based, human. The settings on record: time dependent. On the procedure: Western blot analysis. Approximately 0.5×10^6 cells were grown on 60 mm culture plates and exposed to drugs as indicated for the desired time. The cells were then scraped out, washed in ice cold 1× PBS and pelleted down at 13000 rpm for 2 min. The pelleted cells were suspended in 150 μL of ice-cold whole cell lysis buffer[(20 mMTris of pH 7.4, 250 mM NaCl, 2 mM EDTA, 0.1% Triton, 1 mM DTT (1,4-dithiothreitol), 0.5 mM PMSF, 4 mM sodium orthovanadate, aprotinin (5 mg m/L) and leupeptin (5 mg m/L)] and kept in ice for 30 min, with intermittent vortexing every 5 min. After incubation, the lysate was centrifuged at 13000 rpm for 10 min at 4° C. and the supernatant was collected. The total protein content in the lysate was estimated by Bradford's method, and was then denatured by boiling with 5× loading dye before separating the proteins by SDSpolyacrylamidegel electrophoresis (SDS-PAGE). […]

The test system of a further assay is HepG2 cells. The experiment in a line: Autophagy flux assay using PtfLC3 (GFP-RFP-LC3) reporter protein. The class given is cell-based, human. The settings on record: 500 nM, 24 h, transfected HepG2. From the text: The development of a new vector called ptf-LC3B leading to the expression of a double-tagged GFP-RFP-LC3B protein has helped in the study of autophagy flux and this recombinant protein allows to distinguish between autophagosomes (in yellow) and autophagolysosomes (in red).^33 The pGFP-mRFP-LC3B (ptf-LC3) vector was purchased from Addgene (21074). Briefly, plasmid present in the bacterial pellet was isolated according to manufacturer's instruction (GenElute™ Plasmid Miniprep Kit-Sigma-Aldrich). HepG2 cells were transfected transiently with tandem repeats of GFP-RFP tagged LC3 (ptfLC3) using the Lipofectamine LTX and Plus Reagent Kit (Invitrogen, USA) according to manufacturer's protocol. Briefly, PtfLC3 vector Opti-MEM transfection medium (Solution A) was mixed with Lipofectamine reagent dissolved in Opti-MEM transfection medium (Solution B) and incubated for 45 min at room temperature. […]
Quantitative analysis of autophagy flux using tandem GFP-RFP LC3 reporter protein. […] FIG. 29 is a bar diagram showing the quantitative analysis of autophagy induced by Uttroside B in HepG2 cells. HepG2 cells were transfected transiently with plasmid encoding GFP-RFP-LC3 as described previously and the punctae observed were counted and plotted as a histogram. The next attempt was to verify and quantitate the autophagic flux induced by Uttroside B using a tandem GFP-RFP LC3 reporter protein. […]

In the case of `C[C@H](CC[C@@]1(O)O[C@H]2C[C@H]3[C@@H]4CC[C@H]5C[C@@H](O[C@@H]6O[C@H](CO)[C@H](O[C@@H]7O[C@H](CO)[C@@H](O)[C@H](O[C@@H]8OC[C@@H](O)[C@H](O)[C@H]8O)[C@H]7O[C@@H]7O[C@H](CO)[C@@H](O)[C@H](O)[C@H]7O)[C@H](O)[C@H]6O)CC[C@]5(C)[C@H]4CC[C@]3(C)[C@H]2[C@@H]1C)CO[C@@H]1O[C@H](CO)[C@@H](O)[C@H](O)[C@H]1O` [Uttroside B], the “expression of autophagy related proteins, HepG2” value in assay [1] is on record as “induces up-regulation of all autophagy related proteins in a time dependent manner”. For the same compound, the GFP-RFP-LC3 puncta entry in the assay on HepG2 cells is “increase in amount of yellow puncta and red puncta”.
